Data on 3 molecules can be found in patent publication US6413517B1, “Identification of broadly reactive DR restricted epitopes” (Epimmune, Inc., priority 1997, dated 2002).

The target in experiment [1] is T1, DRB1*0301 (DR3w17) (Homo sapiens, UniProt P01903+P01911, A100K/A102G/A103R/A169T/F55Y/I96L/K41T/L162R/M171V/P40S/Q125H/Q178H/Q39Y/R42S/S66N/T106N/T262R/W38E/Y61H). Briefly: biochemical. The note with it: Binding Capacity (IC50% nM) DR3.
Another experiment deals with T2, DRB1*0401 (DR4w4) (Homo sapiens, UniProt P01903+P01911, A100K/A169T/F76Y/I96L/K127E/L162R/M171V/N62H/P40V/Q125Y/R42H/S133A/S149N/S66Y/V115G/V209L/W38E).
T2 construct: Epstein-Barr virus (EBV) transformed homozygous cell lines were used as sources; endogenous in cells; host or cells: PREISS (EBV-transformed homozygous B cell line)
Briefly: biochemical. Type of experiment: binding.

The next experiment has as its target T3, DRB1*0701 (DR7) (Homo sapiens, UniProt P01903+P01911, A100R/A102G/A103Q/D57E/D86V/E43K/F76Y/K127E/L162R/M171V/P40G/Q125H/Q99D/R33Q/R42Y/R54Q/S133A/S66F/T210M/V115G/Y107V/Y59L/Y89S).
T3 construct: Epstein-Barr virus (EBV) transformed homozygous cell lines were used as sources; endogenous in cells; host or cells: PITOUT (EBV-transformed homozygous B cell line)
Briefly: biochemical. It counts as binding. The following applies: Binding Capacity (IC 50% nM) DR1,4,7 DR7.

In the next experiment the target is T4, DRB1*1501 (DR2w2b) (Homo sapiens, UniProt P01903+P01911).
T4 construct: expressed in transfected cells; host or cells: transfected fibroblasts L466.1
The experiment is described as follows: biochemical. It counts as binding.

The target in the next experiment is T5, DRB1*0405 (DR4w15) (Homo sapiens, UniProt P01903+P01911, A100R/A169T/D86S/F76Y/I96L/K127E/L162R/M171V/N62H/P40V/Q125Y/R42H/S133A/S149N/S66Y/V115G/V209L/W38E).
T5 construct: Epstein-Barr virus (EBV) transformed homozygous cell lines were used as sources; endogenous in cells; host or cells: KT3 (EBV-transformed homozygous B cell line)
The experiment is described as follows: biochemical. It counts as binding.

The next experiment addresses T6, DRB5*0101 (DR2w2a) (Homo sapiens, UniProt P01903+Q30154).
T6 construct: Epstein-Barr virus (EBV) transformed homozygous cell lines were used as sources; endogenous in cells; host or cells: GM3107 (EBV-transformed homozygous B cell line)
The experiment is described as follows: biochemical. It counts as binding.

Experiment [2] deals with T1, DRB1*0301 (DR3w17). The note with it: read-out: Binding Capacity (IC 50% nM) Other Alleles DR3.
A further experiment concerns the target T7, DRB1*0101 (DR1) (Homo sapiens, UniProt P01903+P01911, A100R/D57E/F55L/F60I/F76Y/I96L/L162R/M171V/P40L/Q125E/R42F/V115G/Y59C).
T7 construct: Epstein-Barr virus (EBV) transformed homozygous cell lines were used as sources; endogenous in cells; host or cells: LG2 (EBV-transformed homozygous B cell line)
The experiment is described as follows: biochemical. Type of experiment: binding. The following applies: Binding Capacity (IC 50% nM) DR1,4,7 DRB1.

The target in the next experiment is T8, DRB1*1302 (DR6w19) (Homo sapiens, UniProt P01903+P01911, A100E/A169T/K41T/L162R/M171V/P40S/Q125H/Q178H/Q39Y/Q99D/R42S/S66N/T262R/V115G/W38E/Y61H).
T8 construct: Epstein-Barr virus (EBV) transformed homozygous cell lines were used as sources; the source of Class II molecules the EBV transformed homozygous cell line H0301; endogenous in cells; host or cells: H0301 (EBV-transformed homozygous B cell line)
The experiment is described as follows: biochemical. Type of experiment: binding.

In another experiment the target is T9, DRB1*0802 (DR8w2) (Homo sapiens, UniProt P01903+P01911, A100R/A103L/A169T/F76Y/H45Y/I96F/K41T/L162R/M171V/P40S/Q125H/Q178H/Q39Y/Q99D/R218S/R42G/S66Y/V115G/W38E).
T9 construct: Epstein-Barr virus (EBV) transformed homozygous cell lines were used as sources; endogenous in cells; host or cells: OLL (EBV-transformed homozygous B cell line)
Briefly: biochemical. It counts as binding.

The target in the next experiment is T10, DRB1*0901 (DR9) (Homo sapiens, UniProt P01903+P01911, A100R/A103E/D57H/D86V/F55Y/F60I/F76Y/I96F/K127E/L162R/M171V/P40D/Q125H/Q99R/R33Q/R42F/S133A/S66N/T210M/V115G/W38K/Y107V/Y59G/Y89S).
T10 construct: Epstein-Barr virus (EBV) transformed homozygous cell lines were used as sources; endogenous in cells
The experiment is described as follows: biochemical. Type of experiment: binding.

Another experiment deals with T11, DRB1*1101 (DR5w11) (Homo sapiens, UniProt P01903+P01911, A100R/A169T/A87E/I96F/K41T/L162R/M171V/P40S/Q125H/Q178H/Q39Y/Q99D/R42S/S66Y/T262R/V115G/W38E).
T11 construct: Epstein-Barr virus (EBV) transformed homozygous cell lines were used as sources; endogenous in cells; host or cells: SWEIG (EBV-transformed homozygous B cell line)
The experiment is described as follows: biochemical. It counts as binding.

In the next experiment the target is T12, DRB1*1201 (DR5w12) (Homo sapiens, UniProt P01903+P01911, A100R/A169T/D57E/D86V/F55L/H45Y/K41T/L162R/M171V/P40S/Q125H/Q178H/Q39Y/Q99D/R42G/S66L/T262R/V114A/V67L/W38E/Y59H/Y61H/Y89S).
T12 construct: Epstein-Barr virus (EBV) transformed homozygous cell lines were used as sources; endogenous in cells; host or cells: Herluf (EBV-transformed homozygous B cell line)
Briefly: biochemical. Type of experiment: binding.

Where [3] appears, read: Binding Capacity (IC 50% nM) DR1,4,7 DR4w4.
Where [4] appears, read: read-out: Binding Capacity (IC 50% nM) Other Alleles DR2w2b.
Setting [5] is: Binding Capacity (IC 50% nM) Other Alleles DR4w15.
Where [6] appears, read: Binding Capacity (IC 50% nM) Other Alleles DR2w2a.
Where [7] appears, read: Binding Capacity (IC 50% nM) Other Alleles DR9.
[8] abbreviates: read-out: Binding Capacity (IC 50% nM) Other Alleles DR5w11.
[9] abbreviates: read-out: Binding Capacity (IC 50% nM) Other Alleles DR5w12.
[10] abbreviates: Binding Capacity (IC 50% nM) Other Alleles DR6w19.
Where [11] appears, read: read-out: Binding Capacity (IC 50% nM) Other Alleles DR8w2.
Setting [12] is: Binding Capacity (IC50% nM) DR5w12.

Read-outs that look alike come from different tables or passages of the source. Bounds are passed on as bounds.

T11 sequence (P01903 26-254, other chains not shown): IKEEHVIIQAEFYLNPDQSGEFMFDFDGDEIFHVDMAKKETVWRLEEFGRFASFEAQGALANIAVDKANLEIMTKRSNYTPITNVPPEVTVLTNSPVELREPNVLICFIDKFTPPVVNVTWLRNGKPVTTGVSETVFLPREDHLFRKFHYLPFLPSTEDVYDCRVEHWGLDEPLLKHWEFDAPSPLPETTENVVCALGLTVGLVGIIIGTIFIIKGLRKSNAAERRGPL

On to `CC(C)C[C@H](NC(=O)[C@H](Cc1c[nH]c2ccccc12)NC(=O)[C@@H](NC(=O)[C@H](Cc1ccccc1)NC(=O)[C@@H](NC(=O)[C@@H]1CCCN1C(=O)[C@H](CC(C)C)NC(=O)[C@H](C)NC(=O)[C@@H]1CCCN1C(=O)[C@H](CC(C)C)NC(=O)[C@H](Cc1ccccc1)NC(=O)[C@H](Cc1ccccc1)NC(=O)[C@H](CCC(N)=O)NC(=O)[C@H](CO)NC(=O)[C@@H](NC(=O)[C@@H](N)CC(C)C)[C@@H](C)O)C(C)C)[C@@H](C)O)C(=O)O` [Peptide 1136.16], for which the IC50 at DRB1*0301 (DR3w17) [1] was over 10000 nM; on DRB1*0401 (DR4w4) (setting [3]) it was under 1000 nM; at DRB1*0701 (DR7), under 1000 nM; at DRB1*1501 (DR2w2b) (setting [4]) it was over 1000 nM; at DRB1*0405 (DR4w15) (setting [5]) it was under 1000 nM; at DRB5*0101 (DR2w2a) (setting [6]), under 1000 nM. Further, the IC50 at DRB1*0301 (DR3w17) [2] was over 1000 nM; on DRB1*0101 (DR1) it was under 1000 nM; at DRB1*1302 (DR6w19) (read-out: Binding Capacity (IC 50% nM) Other Alleles DR6w19), over 1000 nM; on DRB1*0802 (DR8w2) (Binding Capacity (IC 50% nM) Other Alleles DR8w2), under 1000 nM; on DRB1*0901 (DR9) (setting [7]) it was under 1000 nM; at DRB1*1101 (DR5w11) (setting [8]), over 1000 nM. For the same molecule, at DRB1*1201 (DR5w12) (setting [9]), the IC50 is over 1000 nM.
`CC[C@H](C)[C@H](N)C(=O)N1CCC[C@H]1C(=O)N[C@@H](CCC(N)=O)C(=O)N[C@@H](CCC(=O)O)C(=O)N[C@@H](Cc1c[nH]c2ccccc12)C(=O)N[C@@H](CCCCN)C(=O)N1CCC[C@H]1C(=O)N[C@@H](C)C(=O)N[C@H](C(=O)N[C@H](C(=O)N[C@H](C(=O)N[C@@H](CCCCN)C(=O)N[C@H](C(=O)N[C@@H](CC(C)C)C(=O)N1CCC[C@H]1C(=O)N[C@@H](C)C(=O)O)C(C)C)C(C)C)[C@@H](C)O)[C@@H](C)CC` [Peptide 1136.21]: the IC50 was over 10000 nM on DRB1*0301 (DR3w17) [1]; under 1000 nM at DRB1*0401 (DR4w4) (setting [3]); under 1000 nM at DRB1*0701 (DR7); over 1000 nM on DRB1*1501 (DR2w2b) (setting [4]); under 1000 nM on DRB1*0405 (DR4w15) (setting [5]); under 1000 nM on DRB5*0101 (DR2w2a) (setting [6]). Further, the IC50 at DRB1*0301 (DR3w17) [2] was over 1000 nM; on DRB1*0101 (DR1), under 1000 nM; at DRB1*1302 (DR6w19) (Binding Capacity (IC50% nM) DR6w19) it was 259 nM; on DRB1*1302 (DR6w19) (setting [10]), under 1000 nM; on DRB1*0802 (DR8w2) (setting [11]) it was over 1000 nM; on DRB1*0901 (DR9) (setting [7]), under 1000 nM. The IC50 on DRB1*1101 (DR5w11) (setting [8]) was over 1000 nM; on DRB1*1201 (DR5w12) (setting [12]), over 10000 nM; at DRB1*1201 (DR5w12) (setting [9]) it was over 1000 nM.
With `CC[C@H](C)[C@H](NC(=O)[C@H](CC(=O)O)NC(=O)[C@H](CC(C)C)NC(=O)[C@@H](NC(=O)CNC(=O)[C@@H](NC(=O)[C@@H](NC(=O)[C@@H](NC(=O)[C@@H](NC(=O)[C@H](C)NC(=O)[C@H](CC(C)C)NC(=O)[C@@H](NC(=O)[C@H](CC(N)=O)NC(=O)[C@H](CO)NC(=O)[C@H](CC(C)C)NC(=O)[C@@H](N)CC(N)=O)C(C)C)[C@@H](C)O)[C@@H](C)CC)[C@@H](C)O)[C@@H](C)O)C(C)C)C(=O)O` [Peptide 1136.24], the IC50 at DRB1*0301 (DR3w17) [1] was over 10000 nM; on DRB1*0401 (DR4w4) (read-out: Binding Capacity (IC 50% nM) DR1,4,7 DR4w4), over 1000 nM; on DRB1*0701 (DR7) it was under 1000 nM; at DRB1*1501 (DR2w2b) (Binding Capacity (IC 50% nM) Other Alleles DR2w2b) it was under 1000 nM; at DRB1*0405 (DR4w15) (read-out: Binding Capacity (IC 50% nM) Other Alleles DR4w15), over 1000 nM; at DRB5*0101 (DR2w2a) (read-out: Binding Capacity (IC 50% nM) Other Alleles DR2w2a), over 1000 nM. For the same molecule, the IC50 is over 1000 nM at DRB1*0301 (DR3w17) [2]; under 1000 nM at DRB1*0101 (DR1); under 1000 nM on DRB1*1302 (DR6w19) (setting [10]); over 10000 nM at DRB1*0802 (DR8w2) (Binding Capacity (IC50% nM) DR8w2); over 1000 nM at DRB1*0802 (DR8w2) (setting [11]); over 10000 nM at DRB1*0901 (DR9) (Binding Capacity (IC50% nM) DR9). The IC50 is over 1000 nM at DRB1*0901 (DR9) (read-out: Binding Capacity (IC 50% nM) Other Alleles DR9); over 10000 nM at DRB1*1101 (DR5w11) (Binding Capacity (IC50% nM) DR5w11); over 1000 nM at DRB1*1101 (DR5w11) (setting [8]); over 10000 nM at DRB1*1201 (DR5w12) (setting [12]); over 1000 nM on DRB1*1201 (DR5w12) (setting [9]).
